Laboratory results from PMC12541587 (Acta Pharmaceutica Sinica. B, 2025).
Where “and” joins values, the source holds several entries; their conditions need not be identical. Equal entries are not always repeated. Where two headings read alike, the source gives them in different places.

Columns and labels:
σ1R [1] = biological target: σ1R (Rattus norvegicus, UniProt Q9R0C9); test: biochemical; assay type: binding; settings: for inhibition at 10 µM: read-out: σ1R Inhibition; for inhibition at 1 µM: read-out: σ1R inhibitory rate at 1 μmol/L
Chain of σ1R (Rattus norvegicus, UniProt Q9R0C9) (Q9R0C9 whole entry): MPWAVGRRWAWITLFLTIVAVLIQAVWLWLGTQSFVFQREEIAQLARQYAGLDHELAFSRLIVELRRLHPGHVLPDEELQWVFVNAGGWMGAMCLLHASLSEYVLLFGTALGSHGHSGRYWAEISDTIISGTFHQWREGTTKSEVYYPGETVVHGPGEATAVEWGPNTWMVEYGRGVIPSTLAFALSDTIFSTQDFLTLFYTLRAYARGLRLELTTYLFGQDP

catalepsy = test: Catalepsy bar test; assay type: in vivo, mice
σ1R-LgBiT and BiP-SmBiT = σ1R-LgBiT and BiP-SmBiT (Homo sapiens, UniProt Q99720); test: NanoBiT σ1R-BiP heterodimerization assay; assay type: cell-based; settings: 10 μmol/L
Chain of σ1R-LgBiT and BiP-SmBiT (Q99720 whole entry): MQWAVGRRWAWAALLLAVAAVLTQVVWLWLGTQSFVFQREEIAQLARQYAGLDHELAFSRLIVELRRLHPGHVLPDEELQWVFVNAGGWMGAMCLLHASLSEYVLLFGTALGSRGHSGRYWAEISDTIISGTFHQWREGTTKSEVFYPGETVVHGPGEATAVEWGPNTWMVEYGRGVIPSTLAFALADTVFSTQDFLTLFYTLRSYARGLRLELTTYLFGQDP

D2/D3 receptor = settings: healthy volunteers and Huntington disease patients; cited from earlier work
σ1R [2] = settings: healthy volunteers and Huntington disease patients; cited from earlier work
σ1R [3] = settings: read-out: σ1R Ki (clinical σ1R agonists); cited from earlier work
dopamine D3 = settings: read-out: dopamine D3 Ki; cited from earlier work
CYP2C19 = CYP2C19 (Homo sapiens, UniProt P33261); test: CYP450 inhibition: CYP2C19; settings: probe S-mephenytoin (35 μmol/L)
Chain of CYP2C19 (P33261 whole entry): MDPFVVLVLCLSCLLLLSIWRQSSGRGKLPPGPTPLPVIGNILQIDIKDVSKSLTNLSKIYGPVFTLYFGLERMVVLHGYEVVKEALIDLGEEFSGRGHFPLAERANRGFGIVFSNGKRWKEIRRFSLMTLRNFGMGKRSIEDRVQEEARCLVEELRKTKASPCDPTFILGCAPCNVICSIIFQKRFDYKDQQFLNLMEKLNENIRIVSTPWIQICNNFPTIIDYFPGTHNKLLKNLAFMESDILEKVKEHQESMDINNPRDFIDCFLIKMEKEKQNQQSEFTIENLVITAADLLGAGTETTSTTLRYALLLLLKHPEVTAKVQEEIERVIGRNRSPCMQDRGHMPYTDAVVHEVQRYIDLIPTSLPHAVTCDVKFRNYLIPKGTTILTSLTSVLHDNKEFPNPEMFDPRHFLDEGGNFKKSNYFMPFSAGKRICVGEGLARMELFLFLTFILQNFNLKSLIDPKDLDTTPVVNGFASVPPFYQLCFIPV

CYP1A2 = biological target: T1, CYP1A2 (Homo sapiens, UniProt P05177); test: in vitro
T1 sequence (P05177 1-516): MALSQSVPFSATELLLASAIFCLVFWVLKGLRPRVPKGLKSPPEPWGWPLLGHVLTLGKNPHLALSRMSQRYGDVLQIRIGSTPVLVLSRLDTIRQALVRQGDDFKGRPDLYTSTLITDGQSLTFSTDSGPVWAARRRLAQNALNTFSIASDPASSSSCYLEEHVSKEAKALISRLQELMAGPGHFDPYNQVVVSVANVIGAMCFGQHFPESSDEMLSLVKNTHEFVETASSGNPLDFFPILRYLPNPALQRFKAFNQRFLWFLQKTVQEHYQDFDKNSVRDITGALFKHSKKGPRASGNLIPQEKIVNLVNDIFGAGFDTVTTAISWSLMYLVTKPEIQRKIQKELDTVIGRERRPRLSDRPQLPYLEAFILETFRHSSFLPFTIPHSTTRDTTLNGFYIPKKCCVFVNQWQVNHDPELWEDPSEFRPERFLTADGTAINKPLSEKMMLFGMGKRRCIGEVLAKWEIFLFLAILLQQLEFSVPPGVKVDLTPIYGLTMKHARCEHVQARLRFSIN

σ1R [4] = assay type: binding, rat; settings: Ki without DPH / Ki with DPH 250 μmol/L
σ2R = biological target: T2, σ2R (Rattus norvegicus, UniProt Q5U3Y7); test: σ2R radioligand binding assay
T2 sequence (Q5U3Y7 1-176): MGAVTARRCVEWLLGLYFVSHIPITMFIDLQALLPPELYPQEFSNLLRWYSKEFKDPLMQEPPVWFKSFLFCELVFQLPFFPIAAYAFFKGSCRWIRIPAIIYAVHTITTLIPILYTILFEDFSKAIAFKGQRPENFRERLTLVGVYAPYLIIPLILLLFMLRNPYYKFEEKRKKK

Structure (SMILES): C/C(=N\OCCN1CCOCC1)c1ccccc1 [16p]
- inhibition at 10 µM (σ1R [1]): 74.4%
- inhibition at 1 µM (σ1R [1]): -8.25%

Structure (SMILES): Cc1nc2n(c(=O)c1CCN1CCC(c3noc4cc(F)ccc34)CC1)CCCC2 [risperidone]
- mean catalepsy duration at peak response (catalepsy; 3 mg/kg risperidone, 60 min post-administration): 49.57 min
- cataleptic response (catalepsy; oral, 15d 10 to 45 mg/kg, risperidone 3 mg/kg): catalepsy induced by 3 mg/kg risperidone was observed

Structure (SMILES): COc1ccc(/C(C)=N/OCCN2CCOCC2)cc1 [16q]
- inhibition at 10 µM (σ1R [1]): 93.2%
- inhibition at 1 µM (σ1R [1]): 37.8%

Structure (SMILES): O=C(OCCN1CCOCC1)C1(c2ccccc2)CCCCC1 [PRE084]
- Ki (σ1R [1]; read-out: σ1R Ki): 0.0231 ± 0.00317 µM
- σ1R-LgBiT/BiP-SmBiT interaction, 10 min treatment (σ1R-LgBiT and BiP-SmBiT): decreased this interaction

Structure (SMILES): CCCN1CCC(c2cccc(S(C)(=O)=O)c2)CC1 [Pridopidine]
- D2/D3 receptor occupancy (PET) (D2/D3 receptor): ~3%
- σ1R occupancy (PET) (σ1R [2]): ~90%
- Ki (σ1R [3]): 0.057 µM
- Ki (dopamine D3): 1.63 µM

Structure (SMILES): COCCCC/C(=N\OCCN)c1ccc(C(F)(F)F)cc1 [Fluvoxamine]
- inhibition at 10 μmol/L (CYP2C19): 95%
- inhibition at 10 µM (σ1R [1]): 81.8%
- inhibition at 10 μmol/L (CYP1A2): 95.7%

Structure (SMILES): COc1ccc(/C(C)=N/OCCCN2CCCCC2)cc1 [15l]
- Ki (σ1R [1]): 0.0394 ± 0.0034 µM
- inhibition at 10 µM (σ1R [1]): 93.2%

Structure (SMILES): C=CCN1CCC2(C)c3cc(O)ccc3CC1C2C (stereo not shown) [SKF10047]
- Ratios Ki/(Ki + phenytoin) (σ1R [4]): 7.10 and 7.10 ± 0.74
- Ki (σ1R [1]): 0.292 ± 0.00618 µM

Structure (SMILES): CN(C)CCN(C)CCc1ccc(Cl)c(Cl)c1 [BD1047]
- Ratios Ki/(Ki + phenytoin) (σ1R [4]): 0.63 ± 0.20
- Ki (σ1R [1]; read-out: σ1R Ki, mean ± SEM, n = 3): 0.00087 ± 0.00015 µM

Structure (SMILES): CC(C)=CCN1CC[C@]2(C)c3cc(O)ccc3C[C@H]1[C@H]2C [(+)-Pentazocine]
- inhibition at 10 µM (σ1R [1]): 99%
- Ki (σ2R): 0.673 ± 0.0275 µM

Structure (SMILES): FC(F)(F)c1ccc2c(c1)OCC/C2=N\OCCCN1CCCCC1 [15o]
- Ki (σ1R [1]): 0.0762 ± 0.00292 µM
- inhibition at 10 µM (σ1R [1]): 99.3%

Structure (SMILES): C/C(=N\OCCN1CCOCC1)c1ccc(Br)cc1 [16r]
- inhibition at 10 µM (σ1R [1]): 106%
- inhibition at 1 µM (σ1R [1]): 55.4%

Structure (SMILES): C/C(=N\OCCN1CCOCC1)c1ccc(C)cc1 [16s]
- inhibition at 10 µM (σ1R [1]): 66.2%
